The values that follow come from patent publication US20260097022A1, “COMPOUNDS AND USES THEREOF” (Integrated Biosciences, Inc., priority 2023, published 2026).

The test system of this experiment is etoposide-treated IMR-90 cells. The experiment can be described thus: Etoposide-induced senescence model, resazurin cell viability (screen and dose-response). Format: cell-based, human. The settings on record: etoposide-induced senescence model; ratio of IC50 values between etoposide- and DMSO-treated IMR-90 fibroblasts. The method in brief: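 IMR-90 fibroblasts made senescent with 50 μM etoposide for 2 days, then 4 days recovery before plating. Compounds at 10 μM or 1 μM final (screen) or three-fold dilutions (1% DMSO) for 3 days, then 0.15 mM resazurin 1 day, fluorescence 550/590 nm. Viability expressed as fraction of untreated controls; biological duplicates.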
A general note: Resazurin is reduced to fluorescent resorufin, in cell work by metabolically active cells.
With `CCOc1ccc(NC(=O)CSc2nc3ccc(NC(=O)c4ccccc4Cl)cc3s2)cc1` [compound 22], the “Therapeutic Index (TI)” value is recorded as “+++ (compounds with a TI of >5 were labeled as +++)”.

With `COc1ccccc1NC(=O)CSc1nc2ccc(NC(=O)c3ccccc3C)cc2s1` [compound 163], the “Therapeutic Index (TI)” value is recorded as “+ (Compounds with a TI of <1 were labelled as +)”. The entry for `O=C(CSc1nc2ccc(NC(=O)c3ccc(CO)c(F)c3)cc2s1)Nc1ccc(F)cc1` [compound 171] is “+++ (compounds with a TI of >5 were labeled as +++)”; for `COc1ccc(NC(=O)CSc2nc3ccc(NC(=O)c4ccccc4)cc3s2)cc1` [compound 57] it is “++ (compounds with a TI of 1 to 5 were labelled as ++)”; for `CCCCOc1ccc(NC(=O)CSc2nc3ccc(NC(=O)c4ccc(C(C)(C)C)cc4)cc3s2)cc1` [compound 9] it is “+++ (compounds with a TI of >5 were labeled as +++)”. For `O=C(CSc1nc2ccc(NC(=O)c3ccccc3)cc2s1)Nc1ccc(Br)cc1` [compound 137], the “Therapeutic Index (TI)” value is given as “++ (compounds with a TI of 1 to 5 were labelled as ++)”. Take `CCCCOc1ccc(C(=O)Nc2ccc3nc(SCC(=O)Nc4ccc(C(C)=O)cc4)sc3c2)cc1` [compound 78]: the “Therapeutic Index (TI)” value was “++ (compounds with a TI of 1 to 5 were labelled as ++)”. Consider `COc1ccccc1C(=O)Nc1ccc2nc(SCC(=O)Nc3ccc(C(C)C)cc3)sc2c1` [compound 155], for which the “Therapeutic Index (TI)” value is given as “+ (Compounds with a TI of <1 were labelled as +)”. The entry for `O=C(CSc1nc2ccc(NC(=O)c3ccc(Cl)cc3)cc2s1)Nc1ccc(F)cc1` [compound 62] is “++ (compounds with a TI of 1 to 5 were labelled as ++)”; for `CCCCCCCCCCOc1ccc(C(=O)Nc2ccc3nc(SCC(=O)Nc4ccccc4)sc3c2)cc1` [compound 149] it is “+ (Compounds with a TI of <1 were labelled as +)”. For `Cc1ccc(NC(=O)CSc2nc3ccc(NC(=O)c4ccccc4)cc3s2)cc1Cl` [compound 37], the “Therapeutic Index (TI)” value is on record as “++ (compounds with a TI of 1 to 5 were labelled as ++)”.

On to `COC(=O)c1ccccc1NC(=O)CSc1nc2ccc(NC(=O)c3ccccc3C)cc2s1` [compound 67], for which the “Therapeutic Index (TI)” value was “++ (compounds with a TI of 1 to 5 were labelled as ++)”. The entry for `Cc1ccccc1C(=O)Nc1ccc2nc(SCC(N)=O)sc2c1` [compound 75] is “++ (compounds with a TI of 1 to 5 were labelled as ++)”; for `CC(=O)c1ccc(NC(=O)CSc2nc3ccc(NC(=O)c4ccccc4Cl)cc3s2)cc1` [compound 17] it is “+++ (compounds with a TI of >5 were labeled as +++)”; for `COc1ccccc1NC(=O)CSc1nc2ccc(NC(=O)c3ccccc3)cc2s1` [compound 167] it is “+ (Compounds with a TI of <1 were labelled as +)”. The entry for `COc1ccc(NC(=O)CSc2nc3ccc(NC(=O)c4cccc5ccccc45)cc3s2)cc1` [compound 108] is “++ (compounds with a TI of 1 to 5 were labelled as ++)”; for `COc1cccc(C(=O)Nc2ccc3nc(SCC(=O)Nc4ccccc4C)sc3c2)c1` [compound 165] it is “+ (Compounds with a TI of <1 were labelled as +)”; for `Cc1ccc(Cl)cc1NC(=O)CSc1nc2ccc(NC(=O)c3ccccc3C)cc2s1` [compound 46] it is “++ (compounds with a TI of 1 to 5 were labelled as ++)”.

On to `Cc1cccc(NC(=O)CSc2nc3ccc(NC(=O)c4ccccc4F)cc3s2)c1C` [compound 27], for which the “Therapeutic Index (TI)” value was “+++ (compounds with a TI of >5 were labeled as +++)”. For `CCOc1ccc(NC(=O)CSc2nc3ccc(N4C(=O)c5ccccc5C4=O)cc3s2)cc1` [compound 25], the “Therapeutic Index (TI)” value is listed as “+++ (compounds with a TI of >5 were labeled as +++)”.

Consider `COc1ccccc1C(=O)Nc1ccc2nc(SCC(=O)N3CCc4ccccc43)sc2c1` [compound 30], for which the “Therapeutic Index (TI)” value is recorded as “++ (compounds with a TI of 1 to 5 were labelled as ++)”. With `Cc1ccc(NC(=O)CSc2nc3ccc(NC(=O)c4ccc(C)cc4)cc3s2)cc1` [compound 145], the “Therapeutic Index (TI)” value is reported as “+ (Compounds with a TI of <1 were labelled as +)”.

On to `CCCCOc1ccc(NC(=O)CSc2nc3ccc(NC(=O)c4cccc5ccccc45)cc3s2)cc1` [compound 54], for which the “Therapeutic Index (TI)” value is given as “++ (compounds with a TI of 1 to 5 were labelled as ++)”.

On to `Cc1ccc(NC(=O)CSc2nc3ccc(NC(=O)c4ccccc4C)cc3s2)c(C)c1` [compound 99], for which the “Therapeutic Index (TI)” value is listed as “++ (compounds with a TI of 1 to 5 were labelled as ++)”. Regarding `Cc1ccc(NC(=O)C(C)Sc2nc3ccc(NC(=O)c4ccc(Cl)cc4)cc3s2)cc1` (stereo not drawn) [compound 90], the “Therapeutic Index (TI)” value is recorded as “++ (compounds with a TI of 1 to 5 were labelled as ++)”.

In the case of `COc1cccc(C(=O)Nc2ccc3nc(SCC(=O)N(C)c4ccccc4)sc3c2)c1` [compound 45], the “Therapeutic Index (TI)” value is listed as “++ (compounds with a TI of 1 to 5 were labelled as ++)”. As for `Cc1cccc(NC(=O)CSc2nc3ccc(NC(=O)c4ccccc4C)cc3s2)c1` [compound 159], the entry is “+ (Compounds with a TI of <1 were labelled as +)”; as for `CCCCOc1ccc(C(=O)Nc2ccc3nc(SCC(=O)Nc4ccccc4)sc3c2)cc1` [compound 76], “++ (compounds with a TI of 1 to 5 were labelled as ++)”. `CS(=O)(=O)c1ccc(C(=O)Nc2ccc3nc(SCC(=O)Nc4cccc(S(N)(=O)=O)c4)sc3c2)cc1F` [compound 173]: the “Therapeutic Index (TI)” value was “++ (compounds with a TI of 1 to 5 were labelled as ++)”. As for `COc1ccc(C(=O)Nc2ccc3nc(SCC(=O)Nc4ccc(C)c(Cl)c4)sc3c2)cc1` [compound 74], the “Therapeutic Index (TI)” value is “++ (compounds with a TI of 1 to 5 were labelled as ++)”.

As for `O=C(Nc1ccc2nc(SCC(=O)N3CCc4ccccc43)sc2c1)c1ccccc1Cl` [compound 132], the “Therapeutic Index (TI)” value is given as “++ (compounds with a TI of 1 to 5 were labelled as ++)”. With `COc1ccccc1C(=O)Nc1ccc2nc(SCC(=O)Nc3cc(Cl)ccc3C)sc2c1` [compound 160], the “Therapeutic Index (TI)” value is “+ (Compounds with a TI of <1 were labelled as +)”. On to `CC(=O)Nc1ccc(NC(=O)CSc2nc3ccc(NC(=O)c4ccc(C)cc4)cc3s2)cc1` [compound 133], for which the “Therapeutic Index (TI)” value was “++ (compounds with a TI of 1 to 5 were labelled as ++)”. Turning to `Cc1cc(C)c(NC(=O)CSc2nc3ccc(NC(=O)c4ccccc4C)cc3s2)c(C)c1` [compound 72], the “Therapeutic Index (TI)” value is “++ (compounds with a TI of 1 to 5 were labelled as ++)”. The entry for `CCCCOc1ccc(NC(=O)CSc2nc3ccc(NC(=O)c4ccccc4Br)cc3s2)cc1` [compound 50] is “++ (compounds with a TI of 1 to 5 were labelled as ++)”; for `Cc1ccc(C(=O)Nc2ccc3nc(SCC(=O)Nc4ccc(C(C)C)cc4)sc3c2)cc1` [compound 24] it is “+++ (compounds with a TI of >5 were labeled as +++)”. As for `Cc1cc(C)c(NC(=O)C(C)Sc2nc3ccc(NC(=O)c4ccccc4)cc3s2)c(C)c1` (stereo not drawn) [compound 139], the entry is “++ (compounds with a TI of 1 to 5 were labelled as ++)”. The entry for `COc1ccc(C(=O)Nc2ccc3nc(SCC(=O)N4CCOCC4)sc3c2)cc1OC` [compound 162] is “+ (Compounds with a TI of <1 were labelled as +)”; for `COc1ccccc1C(=O)Nc1ccc2nc(SCC(=O)Nc3ccccc3Cl)sc2c1` [compound 170] it is “+ (Compounds with a TI of <1 were labelled as +)”.
